# From patent publication US11185552B2, “Inhibitors of glucose-6-phosphate dehydrogenase for treating cardiovascular and pulmonary conditions” (ICHOR, LLC., priority 2016, dated 2021)
# Assays:
# [1] = test system: Bovine pulmonary artery rings; experiment: Relaxation of KCl pre-contracted bovine pulmonary artery rings; conditions: pre-contracted with KCl (30 mM), Krebs buffer
# Experimental: FIG. 6 is a graph showing bovine pulmonary artery rings that were incubated in Krebs buffer and pre-contracted with KCl (30 mM). These pre-contracted rings relaxed by G6PD inhibitors; PD109 (109), PD2124 (2124), PD2958 (2958) and PD4091 (4091) or dehydroepiandrosterone (DHEA).
# Bovine pulmonary artery rings were incubated in Krebs buffer and pre-contracted with KCl (30 mM). These pre-contracted rings relaxed by G6PD inhibitors; PD109 (109), PD2124 (2124), PD2958 (2958) and PD4091 (4091) or dehydroepiandrosterone (DHEA) (FIG. 6).
# [2] = test system: Rat pulmonary artery smooth muscle cells; experiment: Cell number/proliferation by Cyquant assay; type: cell-based; conditions: 72 hr treatment, versus vehicle control
# Experimental: (§1) FIGS. 4A and 4B are graphs showing results for rat pulmonary artery smooth muscle cells that were cultured in 15% DMEM media for 48 hr and cells were treated with newly synthesized G6PD drugs; PD109 (109), PD2124 (2124), PD2958 (2958) and PD4091 (4091) or vehicle control (Con) for 72 hr. Cell number/proliferation (FIG. 4A) and apoptosis (FIG. 4B) was determined by Cyquant and Caspase3/7 assay, respectively. Cell numbers were decreased by G6PD inhibitors (FIG. 4A). Cell apoptosis was increased by PD2958 (1 microM) N=5 in each group (FIG. 4B).
# as §1, with “Rat” for “FIGS. 4A and 4B are graphs showing results for rat”, “cells” for “cells that”, “number/proliferation” for “number/proliferation (FIG. 4A)”, “apoptosis” for “apoptosis (FIG. 4B)”, “inhibitors.” for “inhibitors (FIG. 4A).”, “(FIGS. 4A and” for “(FIG.”
# G6PD = G6PD (Homo sapiens, UniProt P11413); experiment: G6PD activity inhibition (enzyme assay)
# [3] = test system: Aortic rings of G6PD-deficient mice; experiment: Relaxation of KCl pre-contracted aortic rings, G6PD-deficient mice; conditions: KCl (30 mM)
# Experimental: (§2) FIG. 7 is a graph showing aortic rings of wild-type and G6PD-deficient pre-contracted with KCl (30 mM).
# (§3) Aortic rings of wild-type and G6PD-deficient pre-contracted with KCl (30 mM).
# [4] = test system: Bovine pulmonary arteries; experiment: Smooth muscle protein expression in bovine pulmonary arteries incubated in Krebs buffer; conditions: 12 hr
# Experimental: FIGS. 3A and 3B are graphs showing results for bovine pulmonary arteries that were incubated in Krebs buffer with and without G6PD inhibitor PD2958 (2958) and PD2124 (2124) for 12 hr. Vascular smooth cell-specific protein myocardin (MYOCD; FIG. 3A) and smooth muscle myosin heavy chain (MHY11; FIG. 3B) expression was increased by PD2958 (10 microM) and PD2124 (1 microM).
# Bovine pulmonary arteries were incubated in Krebs buffer with and without G6PD inhibitor PD2958 (2958) and PD2124 (2124) for 12 hr. Vascular smooth cell-specific protein myocardin (MYOCD) and smooth muscle myosin heavy chain (MHY11) expression was increased by PD2958 (10 microM) and PD2124 (1 microM) (FIGS. 3A and 3B).
# [5] = test system: Rat pulmonary artery smooth muscle cells; experiment: Apoptosis by Caspase3/7 assay; type: cell-based; conditions: 1 microM, 72 hr, N=5
# Experimental: as §1
# as §1, with “Rat” for “FIGS. 4A and 4B are graphs showing results for rat”, “cells” for “cells that”, “number/proliferation” for “number/proliferation (FIG. 4A)”, “apoptosis” for “apoptosis (FIG. 4B)”, “inhibitors.” for “inhibitors (FIG. 4A).”, “(FIGS. 4A and” for “(FIG.”
# [6] = test system: Aortic rings of wild-type mice; experiment: Relaxation of KCl pre-contracted aortic rings, wild-type mice; conditions: KCl (30 mM)
# Experimental: as §2, §3
# [7] = test system: Rat pulmonary artery smooth muscle cells; experiment: Cell migration; type: cell-based; conditions: 1 microM, 72 hr, N=5
# Experimental: (§4) FIGS. 5A and 5B are images (FIG. 5A) and a graph (FIG. 5B) showing rat pulmonary artery smooth muscle cells that were cultured in 15% DMEM media for 48 hr and cells were treated with newly synthesized G6PD drugs; PD2958 (2958) or vehicle control (Con) for 72 hr. Cells migration was determined. Cell migration was abrogated by PD2958 (1 microM). N=5 in each group.
# as §4, with “Rat” for “FIGS. 5A and 5B are images (FIG. 5A) and a graph (FIG. 5B) showing rat”, “cells” for “cells that”, “group (FIGS. 5A and 5B).” for “group.”
# [8] = test system: mice with pulmonary hypertension; experiment: Hypoxia (10% O2) pulmonary hypertension in mice; type: in vivo; conditions: S.C. 1.3 mg/Kg for 1 wk from wk 4 to wk 5, 10% O2
# Experimental: Placebo and 2124 were injected S.C. (1.3 mg/Kg) for 1 wk from wk 4 to wk 5.
# Sequence of G6PD (P11413 whole entry): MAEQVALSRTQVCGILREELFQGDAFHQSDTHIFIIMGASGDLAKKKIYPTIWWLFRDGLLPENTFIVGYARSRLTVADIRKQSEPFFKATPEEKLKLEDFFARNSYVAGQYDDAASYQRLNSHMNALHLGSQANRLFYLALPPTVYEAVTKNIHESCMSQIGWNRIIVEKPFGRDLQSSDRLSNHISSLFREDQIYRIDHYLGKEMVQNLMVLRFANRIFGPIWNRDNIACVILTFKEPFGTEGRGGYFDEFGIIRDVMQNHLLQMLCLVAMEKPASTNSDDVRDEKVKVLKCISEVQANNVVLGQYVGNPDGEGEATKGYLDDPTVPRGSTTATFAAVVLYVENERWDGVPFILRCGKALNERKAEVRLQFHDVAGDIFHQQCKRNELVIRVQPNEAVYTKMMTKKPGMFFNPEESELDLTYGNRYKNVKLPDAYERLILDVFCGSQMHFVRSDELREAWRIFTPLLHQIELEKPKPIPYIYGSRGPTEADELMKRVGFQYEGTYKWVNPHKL
smiles,measurement,setting,value
"C[C@]12CC[C@H](O)CC1=CC[C@@H]1[C@@H]2CC[C@]2(C)C(=O)CC[C@@H]12 [PD109, 5-Androsten-3-beta-hydroxy-17-one (Dehydroepiandrosterone), reference compound]",relaxation of pre-contracted pulmonary artery rings,[1],relaxed
same,Cell number/proliferation,[2],decreased
"CC(=O)[C@H]1CC[C@H]2[C@@H]3CC[C@H]4C[C@@H](NS(C)(=O)=O)CC[C@]4(C)[C@H]3CC[C@]12C [PD4091, N-[(3β,5α)-20-Oxopregnan-3-yl]methanesulfonamide]",IC50,G6PD,1 to 10 µM
"CCNC(=O)N[C@H]1CC[C@@]2(C)[C@@H](CC[C@@H]3[C@@H]2CC[C@]2(C)C(=O)CC[C@@H]32)C1 [PD2958, N-Ethyl-N′-[(3β,5α)-17-oxoandrostan-3-yl]urea]",relaxation of pre-contracted pulmonary artery rings,[1],relaxed
same,relaxation of pre-contracted aortic rings,[3],not G6PD-deficient mice were relaxed
same,myocardin (MYOCD) expression,[4]; 10 microM,increased
same,smooth muscle myosin heavy chain (MHY11) expression,[4]; 10 microM,increased
same,Cell apoptosis,[5],increased
same,relaxation of pre-contracted aortic rings,[6],relaxed in dose-dependent manner
same,IC50,G6PD,1 to 10 µM
same,Cell number/proliferation,[2],decreased
same,Cell migration,[7],abrogated
"C[C@]12CC[C@H](O)C[C@@H]1CC[C@@H]1[C@@H]2CC[C@]2(C)[C@@H](C(=O)CO)CC[C@@H]12 [PD2124, (3β,5α)-3,21-Dihydroxypregnan-20-one]",relaxation of pre-contracted pulmonary artery rings,[1],relaxed
same,TPR,[8],reduced and reversed
same,arterial elastance,[8],reduced and reversed
same,cardiac index,[8],increased
same,left ventricle (LV) stiffness,[8],reduced and reversed
same,pulmonary resistance determined as PAAT-to-ET ratio,[8],reduced and reversed
same,myocardin (MYOCD) expression,[4]; 1 microM,increased
same,smooth muscle myosin heavy chain (MHY11) expression,[4]; 1 microM,increased
same,IC50,G6PD,1 to 10 µM
same,Cell number/proliferation,[2],decreased
